In article PMC5811991 (Biochemistry, 2008):

Target: GDP-perosamine synthase (Caulobacter vibrioides, UniProt Q9A9H3)
Experiment: HPLC assay of substrate decrease
Assay type: biochemical
Settings: substrate inhibition, competitive versus glutamate (ping-pong, Eq. 1); 100 μM PLP, 20 mM HEPES pH 7.5, 110 mM NaCl, 10 mM MgCl2, room temperature

GDP-perosamine synthase, sequence (Q9A9H3 whole entry): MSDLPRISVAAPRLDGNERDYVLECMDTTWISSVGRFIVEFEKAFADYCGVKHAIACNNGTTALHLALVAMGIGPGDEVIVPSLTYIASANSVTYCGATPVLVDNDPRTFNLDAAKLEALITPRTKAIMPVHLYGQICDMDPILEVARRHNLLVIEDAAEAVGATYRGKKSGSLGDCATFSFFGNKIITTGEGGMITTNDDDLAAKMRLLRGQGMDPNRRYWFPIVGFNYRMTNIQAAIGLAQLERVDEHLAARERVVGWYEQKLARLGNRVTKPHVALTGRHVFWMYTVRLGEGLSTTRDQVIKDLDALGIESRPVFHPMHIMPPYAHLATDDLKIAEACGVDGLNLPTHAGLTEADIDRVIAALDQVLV

Ki sugar: 89 ± 34 µM
SMILES: C[C@H]1O[C@H](OP(=O)(O)OP(=O)(O)OC[C@H]2O[C@@H](n3cnc4c(=O)[nH]c(N)nc43)[C@H](O)[C@@H]2O)[C@@H](O)[C@@H](O)C1=O [GDP-4-keto-6-deoxymannose]
